For one assay, the system named is LAN cells. As to the kind of experiment: Measurement of acetylcholine release in differentiated LAN cells stimulated with 50 mM KCl. Particulars: 1 hour treatment, 0.001, 0.005 and 0.01 mg/mL (Ac-SEQ ID NO: 8-NH2: 0.005 and 0.05 mg/mL). The class given is cell-based. On the procedure: Said peptides were tested for their ability to modulate acetylcholine release in vitro. To that end, LAN cells were seeded on 48-well culture plates and allowed to reach the appropriate confluence under controlled conditions (37° C., 5% CO2) before inducing differentiation by replacing the culture media with Neurobasal® A media, supplemented with N-2 Supplement, GlutaMAX™, choline chloride and Leukemia Inhibition factor (GIBCO, Life technologies, MA, USA). Once the cells acquired its differentiated morphology, they were treated with the peptides mentioned above at the following concentrations for 1 hour: all peptides, except Ac-SEQ ID NO: 8-NH2, at 0.001 mg/mL, 0.005 mg/mL and 0.01 mg/mL; and peptide Ac-SEQ ID NO: 8-NH2 at 0.005 mg/mL and 0.05 mg/mL. Cells were then washed with HEPES, before stimulation of acetylcholine release by depolarization with external 50 mM KCl solution. Non-stimulated cells were incubated with non-depolarizing 4 mM KCl solution. After 30 minutes of incubation with the corresponding depolarizing or non-depolarizing KCl solution, cell supernatants were collected and used to measure acetylcholine levels with Amplex Red Acetylcholine Assay Kit (ThermoFisher Scientific, MA, USA). Cell pellets were used to determine protein content by BCA Protein Test Assay (Pierce BCA Protein Assay kit, ThermoFisher Scientific, MA, USA) (for data normalization purposes).
Percentage of acetylcholine release inhibition was calculated considering 100% release for the positive control (non-treated stimulated with KCl cells).

Assay [1] deals with human skeletal muscle myocytes. As to the kind of experiment: Gene expression modulation in skeletal muscle human myocytes (RTqPCR contractility gene panel). As to conditions: 24 hours, vs basal control. The class given is cell-based. On the procedure:
Said peptides were tested to evaluate their capacity to modulate the expression of several genes related with muscle contraction and relaxation in human skeletal muscle myocytes (Lodish H, Berk A, Zipursky S L, et al. (2000), Molecular Cell Biology, 4th edition; Section 18.3 Myosin: The Actin Motor Protein, Nueva York, W. H. Freeman; Kuo, I Y, & Ehrlich, B E (2015), Signaling in Muscle Contraction, Cold Spring Harbor Perspectives in Biology, 7(2); RAPSN receptor associated protein of the synapse [Homo sapiens (human)], Gene ID in NCBI 5913; Blake D J, Tinsley J M, Davies K E (1996), Utrophin: a structural and functional comparison to dystrophin, Brain Pathol., 6(1):37-47; Barik A, Lu Y, Sathyamurthy A, et.al. (2014), LRP4Is Critical for Neuromuscular Junction Maintenance, The Journal of Neuroscience, 34(42), 13892-13905; Kim N, Stiegler A L, Cameron T O, Hallock P T, et.al. (2008), Lrp4 is a Receptor for Agrin and Forms a Complex with MuSK, Cell, 135(2), 334-342; Mahavadi S, Nalli A, Kumar D, et.al. (2014), Increased expression of caveolin-1 is associated with upregulation of the RhoA/Rho kinase pathway and smooth muscle contraction in diabetes (1110.11), The FASEB Journal, 28:1_supplement)). To that end, a contractility smart data gene panel was designed. Said contractility smart data gene panel analyses the expression of the genes related with muscular contraction and relaxation included in table 5.
Briefly, human skeletal muscle myoblasts were seeded in duplicate in 12-well culture plates at a density of 1×10^5 cells/well and maintained at standard culture conditions (37° C., 95% humidity, 5% CO2) for 48-72h. Myoblast differentiation to myocyte was then induced with specific differentiation media (SKM-D medium+1% Antibiotic-Antimycotic) and monitored for 7 more days. Differentiated cells were treated with 0.05 mg/mL of peptide Ac-SEQ ID NO: 5-NH2; or with 0.1 mg/mL of peptide Ac-SEQ ID NO: 10-NH2 for 24 hours; or with 0.05 and 0.5 mg/mL of peptide Ac-SEQ ID NO: 8-NH2 for 6h; or with 0.5 mg/mL of peptide Ac-SEQ ID NO: 8-NH2 for 24 h. Untreated cells were used as basal control. Cells were then lysed for RNA extraction with a RNA purification commercial kit following manufacturer instructions (RNeasy mini kit, Qiagen, Netherlands). RNA was then quantified by nanodrop, adjusted in concentration and processed for retrotranscription to cDNA using a commercially available kit (High-Capacity cDNA Reverse Transcription kit, Thermofisher Scientific, USA). Resulting cDNA was used to perform a RTqPCR (Real Time Quantitative Polymerase Chain Reaction) using taqman technology and a panel of probes designed to target the specific genes related to muscle contractility mentioned in table 4.
(In qPCR the cycle at which signal appears reflects the starting amount.)

The target in another assay is Munc18/Syntaxin-1 (Homo sapiens, UniProt Q16623). As to the kind of experiment: ELISA-based in vitro Munc18/Syntaxin-1 binding assay. As to conditions: peptide 0.1, 0.5 and 1 mM; Munc18 100 nM, Syntaxin-1 10 and 5 nM; control = 100% binding. The procedure:
The capacity of the peptides to inhibit Munc18 protein-protein interaction with Syntaxin-1, a SNARE complex protein, was functionally evaluated by means of an ELISA-based in vitro Munc18/Syntaxin-1 binding assay. Briefly, the above-mentioned peptides at 0.1, 0.5 and 1 mM were preincubated with their target protein Syntaxin-1 (GST-tagged) at 10 and 5 nM in buffer (20 mM Hepes, 150 mM NaCl, 2 mM MgC2, 2 mM DTT, 0.5% Triton-X100 and 0.5% non-fat milk) for 3 hours at RT. Meanwhile, His-tagged Munc18 was bound to a Nickel-coated 96-well plate at 100 nM and incubated at RT for 1.5 hours. Non-bound protein was subsequently washed away before blocking wells with non-fat milk in wash buffer (PBS+0.02% Triton-X100) for additional 30 minutes. GST-tagged Syntaxin-1 preincubated with the peptides was then added at 10 and 5 nM to the plate and incubated for 2 h at RT. Wells were washed three times with wash buffer before incubation with the primary antibody (GST tag polyclonal antibody—Thermofisher Scientific, Massachusetts, USA) for 45 minutes. Finally, after washing again, HRP-conjugated secondary antibody (Anti-Rabbit-IgG-HRP—Sigma, Missouri, USA) was added and incubated at RT. TMB substrate (3,3′,5,5′-Tetramethylbenzidine) was used to develop signal. […] Amount of binding of Syntaxin-1 protein to Munc18 protein was analysed by measuring absorbance at 450 nm.
(ELISA stands for enzyme-linked immunosorbent assay.)

“Also recorded” adds a separate entry of the source.

Munc18/Syntaxin-1, sequence (Q16623 whole entry): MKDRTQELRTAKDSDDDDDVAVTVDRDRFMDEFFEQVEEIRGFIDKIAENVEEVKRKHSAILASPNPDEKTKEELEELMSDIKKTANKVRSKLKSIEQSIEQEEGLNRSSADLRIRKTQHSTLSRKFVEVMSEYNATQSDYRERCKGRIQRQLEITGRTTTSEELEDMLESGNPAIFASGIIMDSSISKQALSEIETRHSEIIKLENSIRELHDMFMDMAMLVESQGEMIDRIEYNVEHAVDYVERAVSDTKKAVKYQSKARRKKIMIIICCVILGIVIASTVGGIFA

In the case of “Ac-His-Ile-Met-Asp-Trp-Trp-NH2 (Ac-HIMDWW-NH2) [Ac-SEQ ID NO: 9-NH2]”, in the assay with LAN cells, the “Result: modulation of acetylcholine release” value (“Result: modulation” for short) is “Active in the modulation of”.
As to “Ac-His-Ile-Leu-Asp-Met-Trp-NH2 (Ac-HILDMW-NH2) [Ac-SEQ ID NO: 5-NH2]”, the “Result: modulation” value in the assay on LAN cells is “Active in the modulation of”. In assay [1] (0.05 mg/mL), the ACTA1 gene expression result is on record as “downregulation”, the MYH1 gene expression result is given as “downregulation”, the RAPSN gene expression entry is “downregulation” and the SCN3A gene expression result is on record as “downregulation”. Moreover, in assay [1] (0.05 mg/mL), the TNNC1 gene expression result was “downregulation” and the UTRN gene expression result is given as “downregulation”. Besides, in the assay with Munc18/Syntaxin-1, the “Maximum inhibition of Munc18-Syntaxin-1 binding” value stood at 67%.
Regarding “Ac-Glu-Arg-Ile-Asn-Lys-Arg-Arg-Trp-NH2 (Ac-ERINKRRW-NH2) [Ac-SEQ ID NO: 13-NH2]”, the “Result: modulation” value with LAN cells is on record as “not able to inhibit the release of acetylcholine; also recorded: Non-active in the modulation”.
Take “Ac-Arg-Arg-Arg-Phe-NH2 (Ac-RRRF-NH2) [Ac-SEQ ID NO: 10-NH2]”: the “Result: modulation” value in the assay on LAN cells was “Active in the modulation of”. In assay [1] (0.1 mg/mL), the CACNB1 gene expression entry is given as “downregulation”, the CHRNA1 gene expression result was “downregulation”, the SCN3A gene expression entry is reported as “downregulation” and the TNNC1 gene expression entry was “downregulation”. Also, the UTRN gene expression result in assay [1] (0.1 mg/mL) is on record as “downregulation”.
Consider “Ac-Glu-Arg-Ile-Asn-Lys-Met-Arg-Tyr-NH2 (Ac-ERINKMRY-NH2) [Ac-SEQ ID NO: 14-NH2]”, for which the “Result: modulation” value with LAN cells was “not able to inhibit the release of acetylcholine; also recorded: Non-active in the modulation”.
Regarding “Ac-Arg-Met-Arg-Phe-NH2 (Ac-RMRF-NH2) [Ac-SEQ ID NO: 11-NH2]”, the “Result: modulation” value in the assay with LAN cells is given as “Active in the modulation of”.
As to “Ac-His-Ile-Leu-Asp-Trp-Trp-NH2 (Ac-HILDWW-NH2) [Ac-SEQ ID NO: 7-NH2]”, the “Result: modulation” value in the assay with LAN cells is on record as “Active in the modulation of”.
Consider “Ac-His-Ile-Met-Asp-Phe-Trp-NH2 (Ac-HIMDFW-NH2) [Ac-SEQ ID NO: 6-NH2]”, for which, in the assay on LAN cells, the “Result: modulation” value is “Active in the modulation of”.

For the origin of these results see patent US11634458B2, “Peptides and compositions for use in cosmetics and medicine” (LIPOTRUE, S.L., priority 2018, dated 2023).
